Measurements from patent publication US11628186B2, “Method and composition for the reduction of viral replication, duration and spread of the COVID-19 and the flu” (priority 2017, dated 2023).
Values joined by “and” are separate entries in the source; they are usually repeats but may differ in a detail not shown here. Equal entries are not always repeated.

Key:
[1] = test system: patients with chronic Hypoxemia; test: Various drugs with or without pre-inhaled pyruvate formulas (Table VII); assay type: in vivo, human; set-up: SaO2 Measurements taken after medication and compared to baseline / SaO2 Measurements taken after taking the medication and compared to baseline: unit not given here
Experimental: With the hundreds of patients tested in our various clinical trials, data was gathered as to the type of medications the patients used and the frequency of their use over a six-month period. The patients were asked to rate their medications form 1-10 with 1 being the most irritating with the most side effects and 10 being the best with no irritation and no side effects. In these clinical trials, various drugs were evaluated for irritation, mucus production, and efficacy in humans. The drugs were all evaluated using their current formulations and concentrations against the same formulations with the addition of sodium pyruvate, with the calcium, phosphate and magnesium formula given just prior to the use of their medications. They were instructed to 20 inhale this formula just prior to the use of their medications and to evaluate the effect of their medications on the 1-10 scale.
Patients on the various inhaled medications whether inhaled or taken orally or by IV infusion, were enlisted in the evaluation of the inhaled sodium pyruvate calcium, phosphate and magnesium formula. The patients were tested for their SaO2 levels and those that had SaO2 levels below 92% were asked to enlist in the study. […] After the SaO2 levels were determined prior to and one hour after taking their medications, the patients returned the following day, SaO2 measurements were taken one hour prior to taking their medications. The patients were then handed the hypotonic inhalation formula of sodium pyruvate with calcium, phosphate magnesium formula and instructed to inhale it one hour before taking their medications, SaO2 measurements were then taken one hour after taking their medications.

[2] = test system: patients with lung diseases including COPD; test: Comparison of inhaled salts of pyruvate, 5 ml of 0.5 mM solution (Table I); conditions: for Increased in FEV-1% lung function: 5 ml of 0.5 mM solution in physiological saline; for Overall Rating 1-10: 1 most negative, 10 best
Experimental: All previous studies using pyruvate to treat Allergic Rhinitis, Asthmatic and COPD patients used only the sodium salt form of pyruvic acid in saline. The drug products that were tested in the six Phase I/II clinical trial were differing concentrations of sodium pyruvate dissolved in 0.9% sodium chloride solution (Saline). These drug products contained 0.5 mM, 1.5 mM, or 5.0 mM of sodium pyruvate in physiological saline. They were administered to normal volunteers and COPD and asthmatics by inhalation therapy. […] Various sodium pyruvate solutions were evaluated in the lungs for their ability to enhance FEV1 values and reduce coughing, and lung tightness.
The amount of the salts delivered in the 5 ml's of the 0.5 mM pyruvate solutions were compared to the amounts of the salts in 5 ml's of human blood. […] When ethyl pyruvate reacts with oxygen radical like hydrogen peroxide, it is converted to ethane and alcohol and Co2 and acetate. Ethane and alcohol are lung irritants.
This formula can also be made by adding 3% calcium phosphate or dicalcium phosphate to the standard 0.5 mM to 30 mM sodium pyruvate saline solution see Table I.

[3] = test system: patients with sinus & lung diseases including IPF and COPD; test: Salts of pyruvate as 20 mM nasal sprays (Table IX)
From the text: They never tested the individual salts for their ability to reduce inflammation or increase lung functions.

[4] = test system: patients with lung diseases including COPD; test: Comparison of inhaled salts of pyruvate, 5 ml of 5 mM solution (Table II); conditions: for Increased in FEV-1%: 5 ml of 5 mM solution in saline; for Increased in FEV-1% / Irritation / Percentage Increase in SaO2 over baseline / Percentage increase of Nitric Oxide over baseline / Relief of congestion, coughing and lung tightness: inhaled; for Irritation / Percentage Increase in SaO2 over baseline / Percentage increase of Nitric Oxide over baseline / Relief of congestion, coughing and lung tightness / Overall Rating 1-10: 5 ml of 5 mM solution; for Overall Rating 1-10: 1 most negative, 10 best
[5] = Drug in commercial formula taken in prescribed way
[6] = Drug in commercial formula with Pre-inhaled sodium pyruvate, calcium & phosphate & magnesium
[7] = Drug in commercial formula with pre-inhaled sodium pyruvate saline only
[8] = Drugs commercial formula given as instructed in the package
[9] = Drugs in commercial formula Pre-inhaled sodium pyruvate & calcium & phosphate & magnesium
[10] = Drugs in commercial formula with pre-inhaled sodium pyruvate in saline only
[11] = 5 ml of 0.5 mM solution, inhaled
[12] = 20 mM (0.22%) nasal spray in 0.9% sodium chloride

CC(C)(C)NCC(O)c1ccc(O)c(CO)c1 (stereo not drawn) [Albuterol]
SaO2 Measurements taken after medication and compared to baseline [1, 5]: 0
SaO2 measurements taken after taking medication and compared to baseline [1, 6]: +4
SaO2 Measurements taken after taking the medication and compared to baseline [1, 7]: +1
Lung functions (rating 1-10) [1, 8]: 8
Lung functions (rating 1-10) [1, 9]: 8
Lung functions (rating 1-10) [1, 10]: 8

CC(=O)C(=O)O.N [Ammonium, ammonium pyruvate]
Increased in FEV-1% lung function ([2]; inhaled): 0%
Irritation [2, 11]: Yes
Percentage Increase in SaO2 over baseline [2, 11]: No
Percentage decrease or increase of Nitric Oxide over baseline [2, 11]: +5.0%
Relief of congestion, coughing and lung tightness [2, 11]: 1
Overall Rating 1-10 ([2]; 5 ml of 0.5 mM solution): 1
reduction of nitric oxide ([2]; 5 mls of a 0.5 mM inhalation solution): did not reduce nitric oxide
irritation in the nasal cavities compared with the lungs ([2]; evaluated in the nasal cavities): even more irritating
Irritation ([2]; inhaled into the lungs): irritating
Increased in FEV-1% [3, 12]: 0.0%
Irritation [3, 12]: Yes
Percentage Increase in SaO2 over baseline [3, 12]: No
Percentage increase of Nitric Oxide over baseline [3, 12]: 00.0%
Relief of congestion, coughing and lung tightness [3, 12]: 1
Overall Rating 1-10 ([3]; 20 mM (0.22%) nasal spray, 1 most negative, 10 best): 1
Increased in FEV-1% [4]: 0%
Irritation [4]: Yes
Percentage Increase in SaO2 over baseline [4]: No
Percentage increase of Nitric Oxide over baseline [4]: 35.0%
Relief of congestion, coughing and lung tightness [4]: 1
Overall Rating 1-10 [4]: 1

C[C@H]1[C@H](NC(=O)/C(=N\OC(C)(C)C(=O)O)c2csc(N)n2)C(=O)N1S(=O)(=O)O [Aztreonam]
SaO2 Measurements taken after medication and compared to baseline [1, 5]: −1
SaO2 measurements taken after taking medication and compared to baseline [1, 6]: +4
SaO2 Measurements taken after taking the medication and compared to baseline [1, 7]: 0
Lung functions (rating 1-10) [1, 8]: 8
Lung functions (rating 1-10) [1, 9]: 7
Lung functions (rating 1-10) [1, 10]: 8

Oc1ccc2c(c1)[C@@]13CCCC[C@@]1(O)[C@@H](C2)N(CC1CCC1)CC3 [Butorphanol]
SaO2 Measurements taken after medication and compared to baseline [1, 5]: −2
SaO2 measurements taken after taking medication and compared to baseline [1, 6]: 0
SaO2 Measurements taken after taking the medication and compared to baseline [1, 7]: 0
Lung functions (rating 1-10) [1, 8]: 6
Lung functions (rating 1-10) [1, 9]: 9
Lung functions (rating 1-10) [1, 10]: 7

Clc1ccccc1C(c1ccccc1)(c1ccccc1)n1ccnc1 [Chlotrimizole]
SaO2 Measurements taken after medication and compared to baseline [1, 5]: −2
SaO2 measurements taken after taking medication and compared to baseline [1, 6]: +1
SaO2 Measurements taken after taking the medication and compared to baseline [1, 7]: +1
Lung functions (rating 1-10) [1, 8]: 4
Lung functions (rating 1-10) [1, 9]: 8
Lung functions (rating 1-10) [1, 10]: 6

O=C(O)c1cc(=O)c2c(OCC(O)COc3cccc4oc(C(=O)O)cc(=O)c34)cccc2o1 [Cromoglycate]
SaO2 Measurements taken after medication and compared to baseline [1, 5]: 0
SaO2 measurements taken after taking medication and compared to baseline [1, 6]: +5
SaO2 Measurements taken after taking the medication and compared to baseline [1, 7]: 0
Lung functions (rating 1-10) [1, 8]: 3
Lung functions (rating 1-10) [1, 9]: 7
Lung functions (rating 1-10) [1, 10]: 6

CNC[C@H](O)c1ccc(O)c(O)c1 [Epinephrine]
Lung functions (rating 1-10) ([1]; in vivo): 3 and 4 and 5
SaO2 Measurements taken after medication and compared to baseline ([1]; in vivo): +1
SaO2 Measurements taken after taking the medication and compared to baseline ([1]; in vivo): 0
SaO2 measurements taken after taking medication and compared to baseline ([1]; in vivo): +6

CC1(C)O[C@@H]2C[C@H]3[C@@H]4C[C@H](F)C5=CC(=O)C=C[C@]5(C)[C@H]4[C@@H](O)C[C@]3(C)[C@]2(C(=O)CO)O1 [Flunisolide]
SaO2 Measurements taken after medication and compared to baseline [1, 5]: −1
SaO2 measurements taken after taking medication and compared to baseline [1, 6]: +4
SaO2 Measurements taken after taking the medication and compared to baseline [1, 7]: +1
Lung functions (rating 1-10) [1, 8]: 6
Lung functions (rating 1-10) [1, 9]: 6
Lung functions (rating 1-10) [1, 10]: 6

C/C(=C\C(=O)OCCCCCCCCC(=O)O)C[C@@H]1OC[C@H](C[C@@H]2O[C@H]2[C@@H](C)[C@H](C)O)[C@@H](O)[C@H]1O [Mupirocin]
SaO2 Measurements taken after medication and compared to baseline [1, 5]: 0
SaO2 measurements taken after taking medication and compared to baseline [1, 6]: +4
SaO2 Measurements taken after taking the medication and compared to baseline [1, 7]: 0
Lung functions (rating 1-10) [1, 8]: 4
Lung functions (rating 1-10) [1, 9]: 8
Lung functions (rating 1-10) [1, 10]: 6

CC(=O)N[C@@H](CS)C(=O)O [N-acetylcysteine, reference compound]
Increased in FEV-1% lung function ([2]; inhaled): 6%
Irritation [2, 11]: None
Percentage Increase in SaO2 over baseline [2, 11]: 0%
Percentage decrease or increase of Nitric Oxide over baseline [2, 11]: 0%
Relief of congestion, coughing and lung tightness [2, 11]: 8
Overall Rating 1-10 ([2]; 5 ml of 0.5 mM solution): 7
SaO2 Measurements taken after medication and compared to baseline [1, 5]: +1
SaO2 measurements taken after taking medication and compared to baseline [1, 6]: +4
SaO2 Measurements taken after taking the medication and compared to baseline [1, 7]: 0
Lung functions (rating 1-10) [1, 8]: 4
Lung functions (rating 1-10) [1, 9]: 8
Lung functions (rating 1-10) [1, 10]: 6
Increased in FEV-1% [4]: 2%
Irritation [4]: yes
Percentage Increase in SaO2 over baseline [4]: 0%
Percentage increase of Nitric Oxide over baseline [4]: 1%
Relief of congestion, coughing and lung tightness [4]: 7
Overall Rating 1-10 [4]: 7

N=C(N)c1ccc(OCCCCCOc2ccc(C(=N)N)cc2)cc1 [Pentamidine isethionate]
SaO2 Measurements taken after medication and compared to baseline [1, 5]: −1
SaO2 measurements taken after taking medication and compared to baseline [1, 6]: +2
SaO2 Measurements taken after taking the medication and compared to baseline [1, 7]: +1
Lung functions (rating 1-10) [1, 8]: 4
Lung functions (rating 1-10) [1, 9]: 8
Lung functions (rating 1-10) [1, 10]: 5

NC(=O)c1ncn([C@@H]2O[C@H](CO)[C@@H](O)[C@H]2O)n1 [Ribavirin]
SaO2 Measurements taken after medication and compared to baseline [1, 5]: −3
SaO2 measurements taken after taking medication and compared to baseline [1, 6]: +2
SaO2 Measurements taken after taking the medication and compared to baseline [1, 7]: 0
Lung functions (rating 1-10) [1, 8]: 5
Lung functions (rating 1-10) [1, 9]: 7
Lung functions (rating 1-10) [1, 10]: 6

NC[C@H]1O[C@H](O[C@H]2[C@H](O)[C@@H](O[C@H]3O[C@H](CO)[C@@H](O)[C@H](N)[C@H]3O)[C@H](N)C[C@@H]2N)[C@H](N)C[C@@H]1O [Tobramycin]
SaO2 Measurements taken after medication and compared to baseline [1, 5]: −2
SaO2 measurements taken after taking medication and compared to baseline [1, 6]: +3
SaO2 Measurements taken after taking the medication and compared to baseline [1, 7]: 0
Lung functions (rating 1-10) [1, 8]: 5
Lung functions (rating 1-10) [1, 9]: 6
Lung functions (rating 1-10) [1, 10]: 5

CN[C@H](CC(C)C)C(=O)N[C@H]1C(=O)N[C@@H](CC(N)=O)C(=O)N[C@H]2C(=O)N[C@H]3C(=O)N[C@H](C(=O)N[C@H](C(=O)O)c4cc(O)cc(O)c4-c4cc3ccc4O)[C@H](O)c3ccc(c(Cl)c3)Oc3cc2cc(c3O[C@@H]2O[C@H](CO)[C@@H](O)[C@H](O)[C@H]2O[C@H]2C[C@](C)(N)[C@H](O)[C@H](C)O2)Oc2ccc(cc2Cl)[C@H]1O [Vancomycin]
SaO2 Measurements taken after medication and compared to baseline [1, 5]: −1
SaO2 measurements taken after taking medication and compared to baseline [1, 6]: +1
SaO2 Measurements taken after taking the medication and compared to baseline [1, 7]: 0
Lung functions (rating 1-10) [1, 8]: 6
Lung functions (rating 1-10) [1, 9]: 8
Lung functions (rating 1-10) [1, 10]: 5

CC(=O)N[C@H]1[C@H]([C@H](O)[C@H](O)CO)OC(C(=O)O)=C[C@@H]1N=C(N)N [Zanamivir]
SaO2 Measurements taken after medication and compared to baseline [1, 5]: −2
SaO2 measurements taken after taking medication and compared to baseline [1, 6]: +5
SaO2 Measurements taken after taking the medication and compared to baseline [1, 7]: 0
Lung functions (rating 1-10) [1, 8]: 4
Lung functions (rating 1-10) [1, 9]: 7
Lung functions (rating 1-10) [1, 10]: 5

CCOC(=O)C(C)=O [ethyl pyruvate, reference compound]
FEV1 ([2]; 5 mls of a 0.5 mM pyruvate inhalation solution in COPD and asthmatic patients): did not increase FEV-1
Irritation ([2]; in vivo): irritating

Insulin
SaO2 Measurements taken after medication and compared to baseline [1, 5]: −2
SaO2 measurements taken after taking medication and compared to baseline [1, 6]: +4
SaO2 Measurements taken after taking the medication and compared to baseline [1, 7]: +1
Lung functions (rating 1-10) [1, 8]: 5
Lung functions (rating 1-10) [1, 9]: 7
Lung functions (rating 1-10) [1, 10]: 6

Levorphanol Tartrate
SaO2 Measurements taken after medication and compared to baseline [1, 5]: −6
SaO2 measurements taken after taking medication and compared to baseline [1, 6]: +6
SaO2 Measurements taken after taking the medication and compared to baseline [1, 7]: +1
Lung functions (rating 1-10) [1, 8]: 2
Lung functions (rating 1-10) [1, 9]: 8
Lung functions (rating 1-10) [1, 10]: 6
